Data reported in ChEMBL document CHEMBL1275409, “Antimicrobial-resistant pathogens in intensive care units in Canada: results of the Canadian National Intensive Care Unit (CAN-ICU) study, 2005-2006” (2008).

Legend:
Assay type in all cases: functional
Staphylococcus aureus [1] = assay: Antimicrobial activity against methicillin-susceptible Staphylococcus aureus isolated from ICU patient blood assessed as resistant isolates by broth microdilution method in presence of beta-lactamase inhibitor Tazobactam
Staphylococcus aureus [2] = assay: Antimicrobial activity against methicillin-susceptible Staphylococcus aureus assessed as resistant isolates by broth microdilution method in presence of beta-lactamase inhibitor Tazobactam
Staphylococcus aureus [3] = assay: Antimicrobial activity against methicillin-susceptible Staphylococcus aureus isolated from ICU patient wound assessed as resistant isolates by broth microdilution method in presence of beta-lactamase inhibitor Tazobactam
Staphylococcus aureus [4] = assay: Antimicrobial activity against methicillin-susceptible Staphylococcus aureus isolated from ICU patient respiratory tract assessed as resistant isolates by broth microdilution method in presence of beta-lactamase inhibitor Tazobactam
Staphylococcus aureus [5] = assay: Antimicrobial activity against methicillin-resistant Staphylococcus aureus assessed as resistant isolates by broth microdilution method in presence of beta-lactamase inhibitor Tazobactam
Staphylococcus aureus [6] = assay: Antimicrobial activity against methicillin-resistant Staphylococcus aureus isolated from ICU patient blood assessed as resistant isolates by broth microdilution method in presence of beta-lactamase inhibitor Tazobactam
Staphylococcus aureus [7] = assay: Antimicrobial activity against methicillin-resistant Staphylococcus aureus isolated from ICU patient urine assessed as resistant isolates by broth microdilution method in presence of beta-lactamase inhibitor Tazobactam
Staphylococcus aureus [8] = assay: Antimicrobial activity against methicillin-resistant Staphylococcus aureus isolated from ICU patient wound assessed as resistant isolates by broth microdilution method in presence of beta-lactamase inhibitor Tazobactam
Staphylococcus aureus [9] = assay: Antimicrobial activity against methicillin-resistant Staphylococcus aureus isolated from ICU patient respiratory tract assessed as resistant isolates by broth microdilution method in presence of beta-lactamase inhibitor Tazobactam
[10] = system: Staphylococcus epidermidis; assay: Antimicrobial activity against methicillin-susceptible Staphylococcus epidermidis assessed as resistant isolates by broth microdilution method in presence of beta-lactamase inhibitor Tazobactam
[11] = system: Staphylococcus epidermidis; assay: Antimicrobial activity against methicillin-susceptible Staphylococcus epidermidis isolated from ICU patient blood assessed as resistant isolates by broth microdilution method in presence of beta-lactamase inhibitor Tazobactam
[12] = system: Staphylococcus epidermidis; assay: Antimicrobial activity against methicillin-susceptible Staphylococcus epidermidis isolated from ICU patient urine assessed as resistant isolates by broth microdilution method in presence of beta-lactamase inhibitor Tazobactam
[13] = system: Staphylococcus epidermidis; assay: Antimicrobial activity against methicillin-susceptible Staphylococcus epidermidis isolated from ICU patient wound assessed as resistant isolates by broth microdilution method in presence of beta-lactamase inhibitor Tazobactam
[14] = system: Staphylococcus epidermidis; assay: Antimicrobial activity against methicillin-susceptible Staphylococcus epidermidis isolated from ICU patient respiratory tract assessed as resistant isolates by broth microdilution method in presence of beta-lactamase inhibitor Tazobactam
[15] = system: Staphylococcus epidermidis; assay: Antimicrobial activity against methicillin-resistant Staphylococcus epidermidis assessed as resistant isolates by broth microdilution method in presence of beta-lactamase inhibitor Tazobactam
[16] = system: Staphylococcus epidermidis; assay: Antimicrobial activity against methicillin-resistant Staphylococcus epidermidis isolated from ICU patient blood assessed as resistant isolates by broth microdilution method in presence of beta-lactamase inhibitor Tazobactam
[17] = system: Staphylococcus epidermidis; assay: Antimicrobial activity against methicillin-resistant Staphylococcus epidermidis isolated from ICU patient urine assessed as resistant isolates by broth microdilution method in presence of beta-lactamase inhibitor Tazobactam
[18] = system: Staphylococcus epidermidis; assay: Antimicrobial activity against methicillin-resistant Staphylococcus epidermidis isolated from ICU patient wound assessed as resistant isolates by broth microdilution method in presence of beta-lactamase inhibitor Tazobactam
Haemophilus influenzae [19] = assay: Antimicrobial activity against Haemophilus influenzae isolated from ICU patient respiratory tract assessed as resistant isolates by broth microdilution method in presence of beta-lactamase inhibitor Tazobactam
Haemophilus influenzae [20] = assay: Antimicrobial activity against Haemophilus influenzae isolated from ICU patient wound assessed as resistant isolates by broth microdilution method in presence of beta-lactamase inhibitor Tazobactam
Enterococcus sp. [21] = assay: Antimicrobial activity against vancomycin-resistant Enterococcus sp. assessed as resistant isolates by broth microdilution method in presence of beta-lactamase inhibitor Tazobactam
Enterococcus sp. [22] = assay: Antimicrobial activity against vancomycin-resistant Enterococcus sp. isolated from ICU patient blood assessed as resistant isolates by broth microdilution method in presence of beta-lactamase inhibitor Tazobactam
Enterococcus sp. [23] = assay: Antimicrobial activity against vancomycin-resistant Enterococcus sp. isolated from ICU patient urine assessed as resistant isolates by broth microdilution method in presence of beta-lactamase inhibitor Tazobactam
Enterococcus sp. [24] = assay: Antimicrobial activity against vancomycin-resistant Enterococcus sp. isolated from ICU patient wound assessed as resistant isolates by broth microdilution method in presence of beta-lactamase inhibitor Tazobactam
Enterococcus sp. [25] = assay: Antimicrobial activity against vancomycin-resistant Enterococcus sp. isolated from ICU patient respiratory tract assessed as resistant isolates by broth microdilution method in presence of beta-lactamase inhibitor Tazobactam
Escherichia coli [26] = assay: Antimicrobial activity against CTX-M ESBL producing Escherichia coli assessed as resistant isolates by broth microdilution method in presence of beta-lactamase inhibitor Tazobactam
Escherichia coli [27] = assay: Antimicrobial activity against CTX-M ESBL producing Escherichia coli isolated from ICU patient blood assessed as resistant isolates by broth microdilution method in presence of beta-lactamase inhibitor Tazobactam
Escherichia coli [28] = assay: Antimicrobial activity against CTX-M ESBL producing Escherichia coli isolated from ICU patient urine assessed as resistant isolates by broth microdilution method in presence of beta-lactamase inhibitor Tazobactam
Escherichia coli [29] = assay: Antimicrobial activity against CTX-M ESBL producing Escherichia coli isolated from ICU patient wound assessed as resistant isolates by broth microdilution method in presence of beta-lactamase inhibitor Tazobactam
Escherichia coli [30] = assay: Antimicrobial activity against CTX-M ESBL producing Escherichia coli isolated from ICU patient respiratory tract assessed as resistant isolates by broth microdilution method in presence of beta-lactamase inhibitor Tazobactam
Klebsiella pneumoniae [31] = assay: Antimicrobial activity against ESBL producing Klebsiella pneumoniae assessed as resistant isolates by broth microdilution method in presence of beta-lactamase inhibitor Tazobactam
Klebsiella pneumoniae [32] = assay: Antimicrobial activity against ESBL producing Klebsiella pneumoniae isolated from ICU patient blood assessed as resistant isolates by broth microdilution method in presence of beta-lactamase inhibitor Tazobactam
Klebsiella pneumoniae [33] = assay: Antimicrobial activity against ESBL producing Klebsiella pneumoniae isolated from ICU patient urine assessed as resistant isolates by broth microdilution method in presence of beta-lactamase inhibitor Tazobactam
Klebsiella pneumoniae [34] = assay: Antimicrobial activity against ESBL producing Klebsiella pneumoniae isolated from ICU patient wound assessed as resistant isolates by broth microdilution method in presence of beta-lactamase inhibitor Tazobactam
Klebsiella pneumoniae [35] = assay: Antimicrobial activity against ESBL producing Klebsiella pneumoniae isolated from ICU patient respiratory tract assessed as resistant isolates by broth microdilution method in presence of beta-lactamase inhibitor Tazobactam
Pseudomonas aeruginosa [36] = assay: Antimicrobial activity against carbapenem-resistant Pseudomonas aeruginosa assessed as resistant isolates by broth microdilution method in presence of beta-lactamase inhibitor Tazobactam
Pseudomonas aeruginosa [37] = assay: Antimicrobial activity against carbapenem-resistant Pseudomonas aeruginosa isolated from ICU patient blood assessed as resistant isolates by broth microdilution method in presence of beta-lactamase inhibitor Tazobactam
Pseudomonas aeruginosa [38] = assay: Antimicrobial activity against carbapenem-resistant Pseudomonas aeruginosa isolated from ICU patient urine assessed as resistant isolates by broth microdilution method in presence of beta-lactamase inhibitor Tazobactam
Pseudomonas aeruginosa [39] = assay: Antimicrobial activity against carbapenem-resistant Pseudomonas aeruginosa isolated from ICU patient wound assessed as resistant isolates by broth microdilution method in presence of beta-lactamase inhibitor Tazobactam
Pseudomonas aeruginosa [40] = assay: Antimicrobial activity against carbapenem-resistant Pseudomonas aeruginosa isolated from ICU patient respiratory tract assessed as resistant isolates by broth microdilution method in presence of beta-lactamase inhibitor Tazobactam
Enterobacter cloacae [41] = assay: Antimicrobial activity against carbapenem-resistant Enterobacter cloacae assessed as resistant isolates by broth microdilution method in presence of beta-lactamase inhibitor Tazobactam
Enterobacter cloacae [42] = assay: Antimicrobial activity against carbapenem-resistant Enterobacter cloacae isolated from ICU patient blood assessed as resistant isolates by broth microdilution method in presence of beta-lactamase inhibitor Tazobactam
Enterobacter cloacae [43] = assay: Antimicrobial activity against carbapenem-resistant Enterobacter cloacae isolated from ICU patient urine assessed as resistant isolates by broth microdilution method in presence of beta-lactamase inhibitor Tazobactam
Enterobacter cloacae [44] = assay: Antimicrobial activity against carbapenem-resistant Enterobacter cloacae isolated from ICU patient wound assessed as resistant isolates by broth microdilution method in presence of beta-lactamase inhibitor Tazobactam
Enterobacter cloacae [45] = assay: Antimicrobial activity against carbapenem-resistant Enterobacter cloacae isolated from ICU patient respiratory tract assessed as resistant isolates by broth microdilution method in presence of beta-lactamase inhibitor Tazobactam
Haemophilus influenzae [46] = assay: Antimicrobial activity against Haemophilus influenzae assessed as resistant isolates by broth microdilution method in presence of beta-lactamase inhibitor Tazobactam
Haemophilus influenzae [47] = assay: Antimicrobial activity against Haemophilus influenzae isolated from ICU patient blood assessed as resistant isolates by broth microdilution method in presence of beta-lactamase inhibitor Tazobactam
Enterococcus sp. [48] = assay: Antimicrobial activity against vancomycin-resistant Enterococcus sp. isolated from ICU patient respiratory tract assessed as resistant isolates by broth microdilution method
Staphylococcus aureus [49] = assay: Antimicrobial activity against methicillin-susceptible Staphylococcus aureus isolated from ICU patient urine assessed as resistant isolates by broth microdilution method in presence of beta-lactamase inhibitor Tazobactam

Q: How did the Activity (Staphylococcus aureus [1]) turn out when `CCN1CCN(C(=O)N[C@@H](C(=O)N[C@@H]2C(=O)N3[C@@H]2SC(C)(C)[C@@H]3C(=O)O)c2ccccc2)C(=O)C1=O` [PIPERACILLIN] was run?
A: 0%

Q: What about the Activity (Staphylococcus aureus [2]) of the same molecule?
A: 0%

Q: What about the Activity (Staphylococcus aureus [3]) of the same molecule?
A: 0%

Q: What about the Activity (Staphylococcus aureus [4]) of the same molecule?
A: 0%

Q: What about the Activity (Staphylococcus aureus [5]) of the same molecule?
A: 100%

Q: What about the Activity (Staphylococcus aureus [6]) of the same molecule?
A: 100%

Q: What about the Activity (Staphylococcus aureus [7]) of the same molecule?
A: 100%

Q: And the Activity (Staphylococcus aureus [8])?
A: 100%

Q: What about the Activity (Staphylococcus aureus [9]) of the same molecule?
A: 100%

Q: What about the Activity [10] of the same molecule?
A: 1.2%

Q: And the Activity [11]?
A: 0%

Q: What about the Activity [12] of the same molecule?
A: 0%

Q: And the Activity [13]?
A: 4.2%

Q: What about the Activity [14] of the same molecule?
A: 0%

Q: And the Activity [15]?
A: 100%

Q: And the Activity [16]?
A: 100%

Q: What about the Activity [17] of the same molecule?
A: 100%

Q: And the Activity [18]?
A: 100%

Q: What about the Activity (Haemophilus influenzae [19]) of the same molecule?
A: 0.3%

Q: And the Activity (Haemophilus influenzae [20])?
A: 0%

Q: And the Activity (Enterococcus sp. [21])?
A: 21.1%

Q: What about the Activity (Enterococcus sp. [22]) of the same molecule?
A: 27%

Q: And the Activity (Enterococcus sp. [23])?
A: 17.3%

Q: What about the Activity (Enterococcus sp. [24]) of the same molecule?
A: 22.2%

Q: What about the Activity (Enterococcus sp. [25]) of the same molecule?
A: 13.3%

Q: What about the Activity (Escherichia coli [26]) of the same molecule?
A: 1.9%

Q: What about the Activity (Escherichia coli [27]) of the same molecule?
A: 6.9%

Q: And the Activity (Escherichia coli [28])?
A: 1.1%

Q: What about the Activity (Escherichia coli [29]) of the same molecule?
A: 0%

Q: And the Activity (Escherichia coli [30])?
A: 1.6%

Q: What about the Activity (Klebsiella pneumoniae [31]) of the same molecule?
A: 9.3%

Q: And the Activity (Klebsiella pneumoniae [32])?
A: 6.1%

Q: And the Activity (Klebsiella pneumoniae [33])?
A: 13.3%

Q: And the Activity (Klebsiella pneumoniae [34])?
A: 18.9%

Q: What about the Activity (Klebsiella pneumoniae [35]) of the same molecule?
A: 7.3%

Q: What about the Activity (Pseudomonas aeruginosa [36]) of the same molecule?
A: 1.3%

Q: And the Activity (Pseudomonas aeruginosa [37])?
A: 0%

Q: What about the Activity (Pseudomonas aeruginosa [38]) of the same molecule?
A: 0%

Q: And the Activity (Pseudomonas aeruginosa [39])?
A: 0%

Q: And the Activity (Pseudomonas aeruginosa [40])?
A: 2.5%

Q: What about the Activity (Enterobacter cloacae [41]) of the same molecule?
A: 4.9%

Q: And the Activity (Enterobacter cloacae [42])?
A: 4.2%

Q: And the Activity (Enterobacter cloacae [43])?
A: 12.5%

Q: What about the Activity (Enterobacter cloacae [44]) of the same molecule?
A: 0%

Q: What about the Activity (Enterobacter cloacae [45]) of the same molecule?
A: 4.6%

Q: What about the Activity (Haemophilus influenzae [46]) of the same molecule?
A: 0.3%

Q: And the Activity (Haemophilus influenzae [47])?
A: 0%

Q: And the Activity (Enterococcus sp. [48])?
A: 0%

Q: And the Activity (Staphylococcus aureus [49])?
A: 0%
